Source: ChEMBL document CHEMBL5465560, “Selectivity Literature for EUbOPEN Chemogenomic Library” (2024)

How the values were obtained:
[1] = target: Mast/stem cell growth factor receptor Kit (Homo sapiens, UniProt P10721); assay: Selectivity interaction (Kinase panel (Invitrogen)) EUB0000639a KIT; details: at 200 nM
[2] = target: Serine/threonine-protein kinase PAK 2 (Homo sapiens) (UniProt Q13177); assay: Selectivity interaction (Kinase panel (Invitrogen)) EUB0000639a PAK2; details: at 200 nM
[3] = target: T1, NUAK family SNF1-like kinase 1 (Homo sapiens) (UniProt O60285); assay: Selectivity interaction (Kinase panel (literature)) EUB0001199aCl NUAK1; details: at 1 µM
T1 sequence (whole entry): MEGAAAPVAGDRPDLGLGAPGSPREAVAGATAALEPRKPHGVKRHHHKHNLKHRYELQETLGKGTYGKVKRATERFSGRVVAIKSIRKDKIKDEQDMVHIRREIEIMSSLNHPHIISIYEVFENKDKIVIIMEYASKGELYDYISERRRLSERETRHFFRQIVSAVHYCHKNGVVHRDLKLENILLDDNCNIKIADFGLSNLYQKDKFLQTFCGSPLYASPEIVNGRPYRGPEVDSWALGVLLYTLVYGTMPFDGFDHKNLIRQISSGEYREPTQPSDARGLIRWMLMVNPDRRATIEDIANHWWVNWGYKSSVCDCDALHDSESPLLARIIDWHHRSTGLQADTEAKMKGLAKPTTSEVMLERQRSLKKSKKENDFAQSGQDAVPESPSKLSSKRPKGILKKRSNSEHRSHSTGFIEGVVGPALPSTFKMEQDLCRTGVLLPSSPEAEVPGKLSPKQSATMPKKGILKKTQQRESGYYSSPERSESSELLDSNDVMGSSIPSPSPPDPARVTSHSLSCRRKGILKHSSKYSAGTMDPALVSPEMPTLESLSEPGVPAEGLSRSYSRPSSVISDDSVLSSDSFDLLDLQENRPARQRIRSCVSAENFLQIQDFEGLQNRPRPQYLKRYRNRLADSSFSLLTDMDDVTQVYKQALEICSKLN

[4] = target: Beta-1 adrenergic receptor (Homo sapiens, UniProt P08588); assay: Selectivity interaction (Panel of non-epigenetic targets (kinases, GPCRs, ion channels, and transporters, Eurofins) ) EUB0000271b ADRB1; details: at 1 µM
[5] = target: High affinity nerve growth factor receptor (Homo sapiens, UniProt P04629); assay: Selectivity interaction (KinomeScan (DiscoverX)) EUB0000092b NTRK1; details: at 10 µM
[6] = target: T2, Myotonin-protein kinase (Homo sapiens) (UniProt Q09013); assay: Selectivity interaction (Upstate Kinase Profiler service (Millipore)) EUB0000056c DMPK; details: at 1 µM
T2 sequence (whole entry): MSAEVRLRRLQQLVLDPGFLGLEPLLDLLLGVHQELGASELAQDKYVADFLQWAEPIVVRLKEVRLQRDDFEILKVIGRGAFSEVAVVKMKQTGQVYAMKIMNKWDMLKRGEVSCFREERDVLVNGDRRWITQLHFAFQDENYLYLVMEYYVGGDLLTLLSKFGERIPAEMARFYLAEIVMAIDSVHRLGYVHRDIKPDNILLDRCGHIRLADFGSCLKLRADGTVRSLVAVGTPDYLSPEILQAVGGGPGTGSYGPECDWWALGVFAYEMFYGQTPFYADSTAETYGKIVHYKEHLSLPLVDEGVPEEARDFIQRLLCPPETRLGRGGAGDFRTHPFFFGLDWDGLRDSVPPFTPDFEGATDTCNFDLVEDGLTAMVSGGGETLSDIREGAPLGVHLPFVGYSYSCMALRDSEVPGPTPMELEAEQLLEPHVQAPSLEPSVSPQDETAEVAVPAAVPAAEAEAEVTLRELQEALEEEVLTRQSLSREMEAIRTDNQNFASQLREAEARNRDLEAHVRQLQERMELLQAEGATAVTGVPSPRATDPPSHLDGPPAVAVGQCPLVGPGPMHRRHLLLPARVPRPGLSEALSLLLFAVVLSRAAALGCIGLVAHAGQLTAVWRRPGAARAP

[7] = target: Mitogen-activated protein kinase kinase kinase kinase 1 (Homo sapiens) (UniProt Q92918); assay: Selectivity interaction (ActivX KiNativ screen (ex vivo kinase selectivity in human PBMCs)) EUB0001619a MAP4K1; type: cell-based; details: PBMC, at 1 µM
[8] = target: Ephrin type-A receptor 7 (Homo sapiens) (UniProt Q15375); assay: Selectivity interaction (KinomeScan (DiscoverX)) EUB0000618a EPHA7; details: at 10 µM
[9] = target: Casein kinase I isoform gamma-3 (Homo sapiens) (UniProt Q9Y6M4); assay: Selectivity interaction (KinomeScan (DiscoverX)) EUB0000618a CSNK1G3; details: at 10 µM
[10] = target: Protein kinase C theta type (Homo sapiens, UniProt Q04759); assay: Selectivity interaction (SelectScreen profiling (Invitrogen)) EUB0000607a PRKCQ; details: at 2 µM
[11] = target: Death-associated protein kinase 3 (Homo sapiens) (UniProt O43293); assay: Selectivity interaction (KinomeScan (DiscoverX)) EUB0000666a DAPK3; details: at 10 µM
Chain of Death-associated protein kinase 3 (Homo sapiens) (O43293 whole entry, looked up): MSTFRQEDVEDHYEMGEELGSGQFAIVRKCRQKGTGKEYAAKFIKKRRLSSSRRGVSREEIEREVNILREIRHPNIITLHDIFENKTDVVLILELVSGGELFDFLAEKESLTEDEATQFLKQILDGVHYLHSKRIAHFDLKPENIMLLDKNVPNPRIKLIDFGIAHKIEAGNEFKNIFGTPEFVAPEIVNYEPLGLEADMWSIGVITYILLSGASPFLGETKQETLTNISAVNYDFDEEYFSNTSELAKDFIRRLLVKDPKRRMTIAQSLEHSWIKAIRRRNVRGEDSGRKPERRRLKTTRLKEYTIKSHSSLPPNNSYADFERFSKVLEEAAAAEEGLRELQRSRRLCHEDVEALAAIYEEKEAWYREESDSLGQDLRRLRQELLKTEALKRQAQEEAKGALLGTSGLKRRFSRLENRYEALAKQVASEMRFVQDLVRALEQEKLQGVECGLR

Chain of Beta-1 adrenergic receptor (P08588 whole entry, looked up): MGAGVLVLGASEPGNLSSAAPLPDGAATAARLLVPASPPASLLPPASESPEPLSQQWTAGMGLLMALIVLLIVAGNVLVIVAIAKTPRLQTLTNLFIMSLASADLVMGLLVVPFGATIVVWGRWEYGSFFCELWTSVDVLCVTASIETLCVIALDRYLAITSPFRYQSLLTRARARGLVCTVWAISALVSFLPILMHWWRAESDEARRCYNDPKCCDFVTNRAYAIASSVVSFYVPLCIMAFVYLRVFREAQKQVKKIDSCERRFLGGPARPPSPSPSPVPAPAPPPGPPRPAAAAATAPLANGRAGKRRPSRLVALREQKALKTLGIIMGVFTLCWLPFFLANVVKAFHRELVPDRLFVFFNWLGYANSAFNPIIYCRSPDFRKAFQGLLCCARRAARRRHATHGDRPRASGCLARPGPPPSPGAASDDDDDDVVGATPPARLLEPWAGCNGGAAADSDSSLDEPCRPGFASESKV
Chain of Mitogen-activated protein kinase kinase kinase kinase 1 (Homo sapiens) (Q92918 whole entry, looked up): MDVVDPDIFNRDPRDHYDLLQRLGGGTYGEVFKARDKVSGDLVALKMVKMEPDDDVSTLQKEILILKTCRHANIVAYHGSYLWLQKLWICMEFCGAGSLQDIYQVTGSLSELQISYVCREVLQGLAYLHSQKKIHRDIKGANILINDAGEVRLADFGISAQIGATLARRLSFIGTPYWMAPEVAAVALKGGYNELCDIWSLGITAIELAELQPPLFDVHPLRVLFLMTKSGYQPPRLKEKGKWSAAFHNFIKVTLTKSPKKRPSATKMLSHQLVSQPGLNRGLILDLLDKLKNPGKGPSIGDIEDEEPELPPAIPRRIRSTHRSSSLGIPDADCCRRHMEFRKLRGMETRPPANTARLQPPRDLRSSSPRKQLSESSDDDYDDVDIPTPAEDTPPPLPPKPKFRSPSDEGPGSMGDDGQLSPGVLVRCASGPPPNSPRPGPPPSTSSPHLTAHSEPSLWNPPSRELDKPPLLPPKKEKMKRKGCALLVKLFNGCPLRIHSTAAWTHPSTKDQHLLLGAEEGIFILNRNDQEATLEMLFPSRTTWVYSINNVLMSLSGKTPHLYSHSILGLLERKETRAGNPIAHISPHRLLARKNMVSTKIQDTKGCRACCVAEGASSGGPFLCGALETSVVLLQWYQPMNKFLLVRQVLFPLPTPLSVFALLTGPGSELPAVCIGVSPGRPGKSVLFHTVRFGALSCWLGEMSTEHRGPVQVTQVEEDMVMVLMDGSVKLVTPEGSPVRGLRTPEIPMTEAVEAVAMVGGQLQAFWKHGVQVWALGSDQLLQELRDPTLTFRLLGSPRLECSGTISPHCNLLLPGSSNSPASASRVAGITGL
Chain of High affinity nerve growth factor receptor (P04629 33-796 limits assumed): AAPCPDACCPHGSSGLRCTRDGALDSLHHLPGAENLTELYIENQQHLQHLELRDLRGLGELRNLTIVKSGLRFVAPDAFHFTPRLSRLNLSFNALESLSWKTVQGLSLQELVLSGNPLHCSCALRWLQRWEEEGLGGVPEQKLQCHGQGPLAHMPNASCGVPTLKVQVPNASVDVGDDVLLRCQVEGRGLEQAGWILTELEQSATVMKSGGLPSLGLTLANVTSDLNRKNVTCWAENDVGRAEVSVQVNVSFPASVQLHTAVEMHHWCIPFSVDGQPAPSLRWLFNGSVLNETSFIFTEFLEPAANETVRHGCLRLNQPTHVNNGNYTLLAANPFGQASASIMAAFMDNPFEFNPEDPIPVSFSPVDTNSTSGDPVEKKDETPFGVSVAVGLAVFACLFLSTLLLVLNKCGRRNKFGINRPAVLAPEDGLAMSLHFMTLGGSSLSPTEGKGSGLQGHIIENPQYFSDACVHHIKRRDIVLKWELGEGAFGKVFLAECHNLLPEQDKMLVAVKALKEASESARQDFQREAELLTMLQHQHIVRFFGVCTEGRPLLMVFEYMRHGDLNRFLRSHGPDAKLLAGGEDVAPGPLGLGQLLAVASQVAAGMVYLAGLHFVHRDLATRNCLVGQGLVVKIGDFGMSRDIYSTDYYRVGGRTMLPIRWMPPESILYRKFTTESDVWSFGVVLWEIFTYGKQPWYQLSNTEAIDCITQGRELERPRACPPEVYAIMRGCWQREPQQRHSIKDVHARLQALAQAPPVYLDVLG
Chain of Casein kinase I isoform gamma-3 (Homo sapiens) (Q9Y6M4 whole entry, looked up, canonical isoform): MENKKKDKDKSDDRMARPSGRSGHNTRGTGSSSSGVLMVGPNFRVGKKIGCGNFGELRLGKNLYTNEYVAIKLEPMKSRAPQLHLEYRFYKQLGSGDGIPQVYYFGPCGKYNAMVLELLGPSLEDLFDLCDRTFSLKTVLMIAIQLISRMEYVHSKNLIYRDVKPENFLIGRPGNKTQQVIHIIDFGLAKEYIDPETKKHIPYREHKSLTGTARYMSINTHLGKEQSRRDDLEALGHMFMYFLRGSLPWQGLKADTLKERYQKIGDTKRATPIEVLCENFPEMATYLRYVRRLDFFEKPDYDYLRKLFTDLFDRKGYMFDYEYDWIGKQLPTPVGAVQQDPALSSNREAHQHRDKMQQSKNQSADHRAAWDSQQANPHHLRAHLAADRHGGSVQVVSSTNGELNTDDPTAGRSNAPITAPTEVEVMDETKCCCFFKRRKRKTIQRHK
Chain of Serine/threonine-protein kinase PAK 2 (Homo sapiens) (Q13177 whole entry): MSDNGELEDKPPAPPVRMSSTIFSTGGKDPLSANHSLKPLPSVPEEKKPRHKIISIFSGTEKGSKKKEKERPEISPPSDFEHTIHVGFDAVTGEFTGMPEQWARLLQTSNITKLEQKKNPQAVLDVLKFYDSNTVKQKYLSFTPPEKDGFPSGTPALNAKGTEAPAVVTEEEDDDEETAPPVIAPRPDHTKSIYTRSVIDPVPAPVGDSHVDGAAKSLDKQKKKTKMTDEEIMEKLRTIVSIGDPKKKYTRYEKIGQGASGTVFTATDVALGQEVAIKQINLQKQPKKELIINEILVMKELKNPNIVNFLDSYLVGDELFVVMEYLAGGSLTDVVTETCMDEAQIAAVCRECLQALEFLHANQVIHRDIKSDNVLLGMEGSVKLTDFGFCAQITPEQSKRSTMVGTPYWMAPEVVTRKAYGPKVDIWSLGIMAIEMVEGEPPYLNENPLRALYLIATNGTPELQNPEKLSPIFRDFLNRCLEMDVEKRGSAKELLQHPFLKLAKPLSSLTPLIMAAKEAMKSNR
Chain of Protein kinase C theta type (Q04759 whole entry, looked up): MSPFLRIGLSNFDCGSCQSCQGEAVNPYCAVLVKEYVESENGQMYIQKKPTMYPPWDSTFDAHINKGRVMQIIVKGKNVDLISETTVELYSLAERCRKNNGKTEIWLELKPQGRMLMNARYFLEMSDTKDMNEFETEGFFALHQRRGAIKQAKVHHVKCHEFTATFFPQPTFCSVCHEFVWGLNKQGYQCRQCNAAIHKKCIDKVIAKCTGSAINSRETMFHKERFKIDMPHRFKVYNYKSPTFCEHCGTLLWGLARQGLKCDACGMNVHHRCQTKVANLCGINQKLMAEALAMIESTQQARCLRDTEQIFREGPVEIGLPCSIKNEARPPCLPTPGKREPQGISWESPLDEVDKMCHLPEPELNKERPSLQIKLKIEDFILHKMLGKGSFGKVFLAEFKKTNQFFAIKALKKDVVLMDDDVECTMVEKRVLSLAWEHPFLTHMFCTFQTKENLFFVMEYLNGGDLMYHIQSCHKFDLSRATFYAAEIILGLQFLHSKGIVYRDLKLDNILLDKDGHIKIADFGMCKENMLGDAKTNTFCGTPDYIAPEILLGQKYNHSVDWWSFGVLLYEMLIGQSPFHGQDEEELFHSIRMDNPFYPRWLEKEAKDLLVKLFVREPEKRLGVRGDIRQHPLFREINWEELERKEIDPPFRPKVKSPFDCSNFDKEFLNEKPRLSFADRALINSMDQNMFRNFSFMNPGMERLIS

Q: What does the source list for CC[C@@H]1[C@H](F)C(=O)N[C@@H]1COc1nccc2cc(C(N)=O)c(OC)cc12 [ZIMLOVISERTIB]?
A: % of inhibition [1]: 0.275%; % of inhibition [2]: 3.6%

Q: Which % of inhibition [3] does the source give for CN1Cc2nccc(-c3cn(C)nc3-c3ccc(F)cc3)c2C1=O here?
A: -6%

Q: Which % of inhibition [4] does the source give for Cc1cc(C)cc([C@@H]2c3cc(C)ccc3NC(=O)CN2C(=O)c2ccc(Br)s2)c1 here?
A: -13%

Q: For CCC(=O)N1CCN(c2ccc(-n3c(=O)ccc4cnc5ccc(-c6cnc7ccccc7c6)cc5c43)cc2C(F)(F)F)CC1, which % of control [5] is on record?
A: 64%

Q: For Cc1ccc(-c2ccc3c(ccc4sc5c(c43)NC[C@@H](C)NC5=O)n2)cn1, which % of inhibition [6] is on record?
A: -8%

Q: With N#Cc1cccc(-c2c[nH]c3ncnc(N4CCOCC4)c23)c1 as the compound, how does the % of inhibition [7] read?
A: 6%

Q: What does the source list for O[C@H]1CC[C@H](Nc2ncc3nc(Nc4c(F)cc(F)cc4F)n([C@H]4CCOC4)c3n2)CC1?
A: % of control [8]: 100%; % of control [9]: 100%

Q: CNC(=O)Nc1ccc(-c2nc(N3CC4CCC(C3)O4)c3cnn(C4CCC5(CC4)OCCO5)c3n2)cc1 was tested. Which % of inhibition [10] did it give?
A: 5%

Q: Which % of control [11] does the source give for O=C(NOC[C@H](O)CO)c1ccc(F)c(F)c1Nc1ccc(I)cc1F here?
A: 100%
